Laboratory results published in patent US5811444A, “Compositions for reducing abnormal stimulation of endothelin receptors and novel compounds” (Roussel Uclaf, priority 1994, dated 1998).

What was measured:
A receptor of endothelin = biological target: T1, A receptor of endothelin (Rattus norvegicus, UniProt P26684); assay: Study of the activity on the A receptor of endothelin (displacement of 125I Endothelin, rat heart ventricle membranes); type: binding; conditions: rat heart (ventricles) membranes, 25 °C, 60 minutes, pH 7.4, read-out: A receptor of endothelin IC/50
T1 construct: A membrane preparation is produced from the heart (ventricles) of a rat; from tissue; host or cells: rat heart ventricles, membranes
T1 sequence (P26684 21-426): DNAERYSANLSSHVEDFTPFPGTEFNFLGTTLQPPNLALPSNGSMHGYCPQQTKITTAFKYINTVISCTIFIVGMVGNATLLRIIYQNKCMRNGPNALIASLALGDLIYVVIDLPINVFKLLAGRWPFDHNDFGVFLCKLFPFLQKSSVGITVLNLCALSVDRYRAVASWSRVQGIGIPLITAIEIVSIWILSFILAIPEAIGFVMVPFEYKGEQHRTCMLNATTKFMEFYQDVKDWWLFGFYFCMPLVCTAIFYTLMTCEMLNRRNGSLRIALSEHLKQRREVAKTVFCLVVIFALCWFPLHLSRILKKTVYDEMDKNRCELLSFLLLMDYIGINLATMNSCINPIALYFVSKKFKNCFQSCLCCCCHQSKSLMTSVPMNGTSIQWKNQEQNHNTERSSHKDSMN
Experimental: STUDY OF THE ACTIVITY ON THE A RECEPTOR OF ENDOTHELIN
A membrane preparation is produced from the heart (ventricles) of a rat. The tissue is ground up in a POLYTRON in a 50 mM Tris buffer pH=7.4.
After 30 minutes at 25° C. (W.B.) the homogenate is centrifuged at 30000 g for 15 minutes (2 centrifugations with intermediate take up in the Tris buffer pH. 7.4).
(§1) The pellets are resuspended in an incubation buffer (25 mM Tris, 5 microg/ml pepstatin A, 3 microg/ml aprotinin, 0.1 mM PMSF, 3 mM EDTA, 1 mM EGTA pH 7.4).
(§2) 2 ml aliquots are distributed into hemolysis tubes and ^125 I Endothelin (approximately 50000 dpm/tube) and the product to be studied are added. (The product is first tested at 3×10^-5 M three times). When the tested product displaces more than 50% of the radioactivity specifically bound to the receptor, it is tested again according to a range of 7 concentrations so as to determine the concentration which inhibits the radioactivity specifically bound to the receptor by 50%. In this way the 50% inhibitory concentration is determined.
(§3) The non-specific bond is determined by the addition of 10^-6 M endothelin (three times). After incubation at 25° C. for 60 minutes, putting back in the water bath at 0° C., for 5 minutes, filtering under reduced pressure, rinsing with Tris buffer 7.4, the radioactivity is counted in the presence of scintillating Triton. […]

B receptor of endothelin = biological target: T2, B receptor of endothelin (Rattus norvegicus, UniProt P21451); assay: Study of the activity on the B receptor of endothelin (displacement of 125I Endothelin, rat posterior cortex plus cerebellum membranes); type: binding; conditions: 25 °C, 60 minutes, pH 7.4, read-out: B receptor of endothelin IC/50
T2 construct: A membrane preparation is produced from the posterior cortex plus cerebellum of a rat; from tissue; host or cells: rat posterior cortex plus cerebellum, membranes
T2 sequence (P21451 27-442): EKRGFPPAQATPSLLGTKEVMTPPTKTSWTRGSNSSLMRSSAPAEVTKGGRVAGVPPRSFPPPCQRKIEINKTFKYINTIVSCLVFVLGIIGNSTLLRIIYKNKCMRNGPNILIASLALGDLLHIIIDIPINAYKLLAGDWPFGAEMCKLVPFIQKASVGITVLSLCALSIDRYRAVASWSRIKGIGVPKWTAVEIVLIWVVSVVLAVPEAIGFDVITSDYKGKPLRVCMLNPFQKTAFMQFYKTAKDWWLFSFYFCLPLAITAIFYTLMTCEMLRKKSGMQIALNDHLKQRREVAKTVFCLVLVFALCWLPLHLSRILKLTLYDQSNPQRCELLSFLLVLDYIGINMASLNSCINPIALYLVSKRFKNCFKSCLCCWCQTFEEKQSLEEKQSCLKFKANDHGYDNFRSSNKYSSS
Experimental: STUDY OF THE ACTIVITY ON THE B RECEPTOR OF ENDOTHELIN
A membrane preparation is produced from the posterior cortex plus cerebellum of a rat. The tissue is ground up in a POLYTRON in a 50 mM Tris buffer pH=7.4.
After 30 minutes at 25° C. (W.B.) the homogenate is centrifuged at 30000 g for 15 minutes (2 centrifugations with intermediate take-up in the Tris buffer pH. 7.4).
as §1, §2, §3

| IC50 (A receptor of endothelin) [nM] | IC50 (B receptor of endothelin) [nM] | SMILES |
| --- | --- | --- |
| 91 | 250 | CCCCc1nc(S(=O)(=O)c2ccc(OC)cc2)c(C(=O)O)n1Cc1cc2c(cc1Cl)OCO2 [Example 10, 2-butyl-1-((6-chloro-1,3-benzodioxol-5-yl)methyl)-4-((4-methoxyphenyl)sulphonyl)-1H-imidazole-5-carboxylic acid] |
| 110 | 350 | COc1ccc(Sc2nc(C)n(Cc3cc4c(cc3Cl)OCO4)c2C(=O)O)cc1 [Example 21, 1-((6-chloro-1,3-benzodioxol-5-yl)methyl)-4-((4-methoxyphenyl)thio)-2-methyl-1H-imidazole-5-carboxylic acid] |
